According to US20230286928A1, “HETEROCYCLIC COMPOUNDS USEFUL IN THE TREATMENT OF DISEASE” (Epigen Biosciences, Inc., priority 2018, published 2023):
pIC50: −log10 of the molar value.

Molecular target: T1, LPA1R (Homo sapiens, UniProt Q92633)
T1 construct: host or cells: LPA1R expressing cells (Millipore, GPCR Profiler)
Assay: Calcium flux assay: inhibition of LPA-stimulated Ca2+ flux (FLIPR, antagonist mode)
Type: cell-based
Conditions: LPA1R Ca2+ flux functional assay, LPA1R expressing cells challenged with EC80 of LPA, read-out: LPA1 R Antagonist Activity
Protocol: Inhibition of LPA-stimulated Ca^2+ flux was used to assess compound potency using FLIPR technology in a 96 well plate format. The assay buffer used was a modified Hanks Balanced Salt Solution (HBSS) where HBSS was supplemented to contain 20 mM HEPES and 2.5 mM Probenecid at pH7.4 (Millipore, GPCR Profiler®). LPA1R expressing cells (Millipore) were plated and prepared 24 hours prior to assay of test articles. Ca^2+ ion flux was assessed from fluorescence of a Fluo-based No Wash Ca^2+ dye. Antagonist data are generated from plates with LPA concentrations sufficient to generate 80% efficacy [EC80]. Percentage inhibition was calculated from a reduction of efficacy according to concentration of compounds of Formula I-VI. For dose responses the inhibition data was used to calculate compound IC50.
The agonist assay was conducted on a FLIPR^TETRA instrument where the test compound(s), vehicle controls, and reference agonist were added to the assay plate after a fluorescence baseline was established. The agonist assay was a total of 180 seconds and was used to assess each compound's ability to activate each GPCR assayed. Upon completion of the agonist assay, the assay plate was removed from the FLIPR^TETRA and incubated at 25° C. for seven (7) minutes. After the incubation period, the assay plate was placed back in the FLIPR^TETRA and the antagonist assay was initiated.
Antagonist Assay: Using EC80 potency values determined during the agonist assay, all pre-incubated sample compound wells were challenged with EC80 concentration of reference agonist after establishment of a fluorescence baseline. The antagonist assay was conducted using the same assay plate that was used for the agonist assay. The antagonist assay was conducted on a FLIPR^TETRA instrument where 9 vehicle controls and EC80 concentration of reference agonist were added to appropriate wells. The antagonist assay was a total of 180 seconds and was used to assess each compound's ability to inhibit each GPCR assayed.
Data Processing: All assay plate data were subjected to appropriate baseline corrections. After baseline corrections were applied, maximum fluorescence values were exported and data processed to calculate percentage activation (relative to Emax reference agonist and vehicle control values), percentage inhibition (relative to EC80 and vehicle control values), and additional statistical values (i.e. Z′, percentage variation between replicate data values) to assess the quality of each plate. Where assay plate data were rejected, additional experiments were conducted. All dose response curves were generated using GraphPad Prism. The curves were fit by utilizing “Sigmoidal Dose Response (Variable Slope)” equation where the bottom parameter was fixed to “0.” Where appropriate, the top parameter was fixed to “100” to better predict potency values when a full curve was not generated by the concentrations assayed.

T1 sequence (Q92633 whole entry): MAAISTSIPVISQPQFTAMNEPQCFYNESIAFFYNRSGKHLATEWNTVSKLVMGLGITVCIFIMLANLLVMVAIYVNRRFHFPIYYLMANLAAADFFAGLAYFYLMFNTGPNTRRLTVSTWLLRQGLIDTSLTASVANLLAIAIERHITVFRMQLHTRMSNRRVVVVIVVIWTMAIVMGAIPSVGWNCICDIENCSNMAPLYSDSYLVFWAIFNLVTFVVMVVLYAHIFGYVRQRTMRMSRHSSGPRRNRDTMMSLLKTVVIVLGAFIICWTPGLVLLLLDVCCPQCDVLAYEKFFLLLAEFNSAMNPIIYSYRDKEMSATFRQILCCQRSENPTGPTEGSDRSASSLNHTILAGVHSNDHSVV

SMILES: C[C@@H](OC(=O)Nc1c(F)cnn1-c1ccc(-c2ccc(C3(C(=O)O)CC3)cc2)nc1)c1ccccc1Cl [Compound 1, (R)-1-(4-(5-(5-(((1-(2-chlorophenyl)ethoxy)carbonyl)amino)-4-fluoro-1H-pyrazol-1-yl)pyridin-2-yl)phenyl)cyclopropane-1-carboxylic acid]
- pIC50: > 6.52

SMILES: C[C@@H](OC(=O)Nc1c(Cl)cnn1-c1ccc(-c2ccc(C3(C(=O)O)CC3)cc2)nc1)c1ccccc1Cl [Compound 2, (R)-1-(4-(5-(4-chloro-5-(((1-(2-chlorophenyl)ethoxy)carbonyl)amino)-1H-pyrazol-1-yl)pyridin-2-yl)phenyl)cyclopropane-1-carboxylic acid]
- pIC50: > 6.52

SMILES: C[C@@H](OC(=O)Nc1c(F)cnn1-c1ccc(-c2ccc(C3(C(=O)O)CC3)cc2)cc1)c1ccccc1 [Compound 3, (R)-1-(4′-(4-fluoro-5-(((1-phenylethoxy)carbonyl)amino)-1H-pyrazol-1-yl)-[1,1′-biphenyl]-4-yl)cyclopropane-1-carboxylic acid]
- pIC50: > 6.52

SMILES: C[C@@H](OC(=O)Nc1c(Cl)cnn1-c1ccc(-c2ccc(C3(C(=O)O)CC3)cc2)cc1)c1ccccc1 [Compound 4, (R)-1-(4′-(4-chloro-5-(((1-phenylethoxy)carbonyl)amino)-1H-pyrazol-1-yl)-[1,1′-biphenyl]-4-yl)cyclopropane-1-carboxylic acid]
- pIC50: > 6.52

SMILES: C[C@@H](OC(=O)Nc1c(C#N)cnn1-c1ccc(-c2ccc(C3(C(=O)O)CC3)cc2)cc1)c1ccccc1 [Compound 5, (R)-1-(4′-(4-cyano-5-(((1-phenylethoxy)carbonyl)amino)-1H-pyrazol-1-yl)-[1,1′-biphenyl]-4-yl)cyclopropane-1-carboxylic acid]
- pIC50: > 6.52

SMILES: C[C@@H](OC(=O)Nc1c(C#N)cnn1-c1ccc(-c2ccc(C3(C(=O)O)CC3)cc2)cc1)c1ccccc1Cl [Compound 6, (R)-1-(4′-(5-(((1-(2-chlorophenyl)ethoxy)carbonyl)amino)-4-cyano-1H-pyrazol-1-yl)-[1,1′-biphenyl]-4-yl)cyclopropane-1-carboxylic acid]
- pIC50: > 6.52

SMILES: C[C@@H](OC(=O)Nc1c(F)cnn1-c1ccc(-c2ccc(C3(C(=O)O)CC3)c(F)c2)cc1)c1ccccc1 [Compound 7, (R)-1-(3-fluoro-4′-(4-fluoro-5-(((1-phenylethoxy)carbonyl)amino)-1H-pyrazol-1-yl)-[1,1′-biphenyl]-4-yl)cyclopropane-1-carboxylic acid]
- pIC50: > 6.52

SMILES: C[C@@H](OC(=O)Nc1c(F)cnn1-c1ccc(-c2ccc(C3(C(=O)O)CC3)cc2F)cc1)c1ccccc1 [Compound 8, (R)-1-(2-fluoro-4′-(4-fluoro-5-(((1-phenylethoxy)carbonyl)amino)-1H-pyrazol-1-yl)-[1,1′-biphenyl]-4-yl)cyclopropane-1-carboxylic acid]
- pIC50: > 6.52

SMILES: C[C@@H](OC(=O)Nc1c(Cl)cnn1-c1ccc(-c2ccc(C3(C(=O)O)CC3)c(F)c2)cc1)c1ccccc1 [Compound 9, (R)-1-(4′-(4-chloro-5-(((1-phenylethoxy)carbonyl)amino)-1H-pyrazol-1-yl)-3-fluoro-[1,1′-biphenyl]-4-yl)cyclopropane-1-carboxylic acid]
- pIC50: > 6.52

SMILES: C[C@@H](OC(=O)Nc1c(Cl)cnn1-c1ccc(-c2ccc(C3(C(=O)O)CC3)cc2F)cc1)c1ccccc1 [Compound 10, (R)-1-(4′-(4-chloro-5-(((1-phenylethoxy)carbonyl)amino)-1H-pyrazol-1-yl)-2-fluoro-[1,1′-biphenyl]-4-yl)cyclopropane-1-carboxylic acid]
- pIC50: > 6.52

SMILES: C[C@@H](OC(=O)Nc1c(F)cnn1-c1ccc(-c2ccc(C3(C(=O)O)CC3)cc2Cl)cc1)c1ccccc1 [Compound 11, (R)-1-(2-chloro-4′-(4-fluoro-5-(((1-phenylethoxy)carbonyl)amino)-1H-pyrazol-1-yl)-[1,1′-biphenyl]-4-yl)cyclopropane-1-carboxylic acid]
- pIC50: > 6.52
